Structures are written as SMILES.

This series can be described thus: Metabolic stability in human liver microsomes assessed as compound remaining after 30 mins. The series is classed as ADME, Microsome. The note with it: read-out: Stability.
On to `O=C(CCn1nnnc1-c1ncccn1)c1ccccc1`, for which the remaining at 0.5 h turned out to be 53%.
With `COc1ccccc1-n1nnnc1CCC(=O)c1ccccc1` the figure was 42%.
With `O=C(CCn1nnnc1-c1ccsc1)c1ccccc1` the figure was 6%; with `O=C(CCc1nnnn1-c1ccccc1)c1cccc(Cl)c1`, 8%.
As to `Cc1ccc(-n2nnnc2CCC(=O)c2ccccc2)cc1`, the remaining at 0.5 h worked out at 2%.
Turning to `O=C(CCc1nnnn1-c1ccc(Cl)cc1)c1ccccc1`, the remaining at 0.5 h worked out at 34%.
The figure for `O=C(CCc1nnnn1-c1cccnc1)c1ccccc1` is 81%.
The figure for `O=C(CCn1nnnc1-c1ccccc1Cl)c1ccccc1` is 5%; for `COc1ccc(-n2nnnc2CCC(=O)c2ccccc2)cc1` it is 12%.
With `CC(C)(C)C(=O)CS(=O)(=O)c1nnnn1-c1ccccc1` the figure was 4%; with `O=C(CCc1nnnn1-c1ccccc1)C1CCCCC1`, 11%.
As to `COc1ccc(-c2nnnn2CCC(=O)c2ccccc2)cc1`, the remaining at 0.5 h was found to be 18%.
With `O=C(CCn1nnnc1-c1cccnc1)c1ccccc1` the figure was 81%; with `COc1cccc(C(=O)CCc2nnnn2-c2ccccc2)c1`, 14%; with `O=C(CCn1nnnc1-c1cnccn1)c1ccccc1`, 31%.
Take `O=C(CCn1nnnc1-c1cccc(Cl)c1)c1ccccc1`: the remaining at 0.5 h amounted to 20%.
The figure for `O=C(CCc1nnnn1C1CCCc2ccccc21)c1ccccc1` (configuration not stated) is 7%; for `O=C(COc1nnnn1-c1ccccc1)c1ccccc1` it is 4%; for `O=C(CCc1nnnn1C1CC1)c1ccccc1` it is 73%.
The figure for `O=C(CCc1nnnn1Cc1ccccc1)c1ccccc1` is 33%; for `O=C(CCc1nnnn1C1CCCCC1)c1ccccc1` it is 14%; for `COc1ccccc1-c1nnnn1CCC(=O)c1ccccc1` it is 9%.
With `Cc1ccccc1-n1nnnc1CCC(=O)c1ccccc1` the figure was 22%.
`COc1cccc(-n2nnnc2CCC(=O)c2ccccc2)c1`: the remaining at 0.5 h came out at 6%.
With `O=C(CCc1nnnn1-c1ccccc1)c1ccccc1` the figure was 88%; with `O=C(CCn1nnnc1-c1ccccc1)c1ccccc1`, 29%.
The figure for `CC(C)(C)C(=O)C[S+]([O-])c1nnnn1-c1ccccc1` (configuration not stated) is 25%.
The figure for `O=C(CCc1nnnn1-c1ccccc1)c1cccc(F)c1` is 21%; for `Cc1cccc(-n2nnnc2CCC(=O)c2ccccc2)c1` it is 2%.
Turning to `O=C(CCc1nnnn1C1CCc2ccccc21)c1ccccc1` (configuration not stated), the remaining at 0.5 h was 1%.
With `O=C(CCn1nnnc1-c1ccc2c(c1)OCO2)c1ccccc1` the figure was 11%; with `N#Cc1ccc(-n2nnnc2CCC(=O)c2ccccc2)cc1`, 37%.

(Values after ChEMBL document CHEMBL1155502, “Modulation of 11beta-hydroxysteroid dehydrogenase type 1 activity by 1,5-substituted 1H-tetrazoles” (Bioorg Med Chem Lett, 2010).)
